From patent publication US7728012B2, “Carboxamide compounds and their use as calpain inhibitors” (Abbott GmbH & Co. KG, priority 2006, dated 2010)

Tests used:
Assay type in all cases: biochemical
[1] = target: T1, calpain-I isolated from human erythrocytes (Homo sapiens, UniProt P07384); assay: Calpain I kinetic fluorescence enzyme inhibition assay; conditions: apparent Ki from IC50 by Cheng-Prussoff; average of 2 to 4 dose-effect plots
T1 construct: calpain-I—isolated from human erythrocytes; purchased Calbiochem 208713; host or cells: human erythrocytes (tissue isolate)
T1 sequence (P07384 1-714): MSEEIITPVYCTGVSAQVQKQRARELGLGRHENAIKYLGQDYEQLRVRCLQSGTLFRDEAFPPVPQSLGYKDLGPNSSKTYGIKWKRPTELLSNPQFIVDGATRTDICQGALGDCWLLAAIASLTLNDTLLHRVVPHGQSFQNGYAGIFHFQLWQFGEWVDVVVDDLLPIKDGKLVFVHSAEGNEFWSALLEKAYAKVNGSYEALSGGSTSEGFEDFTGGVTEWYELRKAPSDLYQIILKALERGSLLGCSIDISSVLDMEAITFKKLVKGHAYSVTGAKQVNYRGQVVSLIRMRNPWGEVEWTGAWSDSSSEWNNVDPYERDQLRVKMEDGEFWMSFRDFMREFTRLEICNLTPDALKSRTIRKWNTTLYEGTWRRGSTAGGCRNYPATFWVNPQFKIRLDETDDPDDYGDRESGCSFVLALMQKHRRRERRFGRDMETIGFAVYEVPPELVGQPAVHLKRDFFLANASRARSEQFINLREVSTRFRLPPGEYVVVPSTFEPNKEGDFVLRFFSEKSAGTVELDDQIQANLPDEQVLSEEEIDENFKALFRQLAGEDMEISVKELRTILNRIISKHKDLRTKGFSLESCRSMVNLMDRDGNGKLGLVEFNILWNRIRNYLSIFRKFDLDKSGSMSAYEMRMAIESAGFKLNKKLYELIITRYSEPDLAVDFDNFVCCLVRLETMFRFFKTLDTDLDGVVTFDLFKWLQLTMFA
T1 sequence (P04632 1-268 partner): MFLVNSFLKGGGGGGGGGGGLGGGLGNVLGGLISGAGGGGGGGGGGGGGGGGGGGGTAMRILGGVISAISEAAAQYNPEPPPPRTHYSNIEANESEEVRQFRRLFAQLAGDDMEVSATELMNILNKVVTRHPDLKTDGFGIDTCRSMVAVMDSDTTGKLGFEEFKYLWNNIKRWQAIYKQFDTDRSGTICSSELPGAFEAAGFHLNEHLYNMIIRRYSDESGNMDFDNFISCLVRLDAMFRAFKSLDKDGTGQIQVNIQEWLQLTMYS

[2] = target: T2, cathepsin B isolated from human liver (Homo sapiens, UniProt P07858); assay: Cathepsin B kinetic fluorescence enzyme inhibition assay; conditions: selectivity ratio versus calpain I
T2 construct: cathepsin B—isolated from human liver; purchased Calbiochem 219362; host or cells: human liver (tissue isolate)
Outline: (§1)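 Cathepsin B (0.25 nM, human liver) with 100 μM Z-Phe-Arg-AMC; L (1 nM, human liver) with 2 μM Z-Phe-Arg-AMC; S (0.5 nM, recombinant) with 20 μM Z-Val-Val-Arg-AMC. pH 6.0 MES buffer, 2.5 mM L-cysteine, room temperature. Kinetic fluorescence (ex 390/em 460 nm); apparent Ki from IC50 by Cheng-Prusoff.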

[3] = target: T3, cathepsin K activated from recombinant human procathepsin K (Homo sapiens, UniProt P43235); assay: Cathepsin K kinetic fluorescence enzyme inhibition assay; conditions: selectivity ratio versus calpain I
T3 construct: purchased Calbiochem 342001; host or cells: E. coli
T3 sequence (P43235 115-329): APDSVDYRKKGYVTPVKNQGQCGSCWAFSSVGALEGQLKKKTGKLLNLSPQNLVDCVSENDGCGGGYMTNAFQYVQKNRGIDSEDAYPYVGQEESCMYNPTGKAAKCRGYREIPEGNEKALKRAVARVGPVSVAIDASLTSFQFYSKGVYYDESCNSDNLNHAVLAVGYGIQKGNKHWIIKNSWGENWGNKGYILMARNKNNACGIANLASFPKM

[4] = target: T4, cathepsin L isolated from human liver (Homo sapiens, UniProt P07711); assay: Cathepsin L kinetic fluorescence enzyme inhibition assay; conditions: selectivity ratio versus calpain I
T4 construct: cathepsin L—isolated from human liver; purchased Calbiochem 219402; host or cells: human liver (tissue isolate)
T4 sequence (P07711 114-333): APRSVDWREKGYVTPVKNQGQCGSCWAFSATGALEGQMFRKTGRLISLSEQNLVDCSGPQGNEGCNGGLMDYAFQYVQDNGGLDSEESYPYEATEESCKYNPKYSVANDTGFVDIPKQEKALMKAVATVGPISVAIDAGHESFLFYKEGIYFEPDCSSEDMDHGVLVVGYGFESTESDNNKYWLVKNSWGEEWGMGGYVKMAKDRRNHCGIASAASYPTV
Outline: as §1

[5] = target: T5, recombinant human cathepsin S (Homo sapiens, UniProt P25774); assay: Cathepsin S kinetic fluorescence enzyme inhibition assay; conditions: selectivity ratio versus calpain I
T5 construct: purchased Calbiochem 219343; host or cells: E. coli
T5 sequence (P25774 115-331): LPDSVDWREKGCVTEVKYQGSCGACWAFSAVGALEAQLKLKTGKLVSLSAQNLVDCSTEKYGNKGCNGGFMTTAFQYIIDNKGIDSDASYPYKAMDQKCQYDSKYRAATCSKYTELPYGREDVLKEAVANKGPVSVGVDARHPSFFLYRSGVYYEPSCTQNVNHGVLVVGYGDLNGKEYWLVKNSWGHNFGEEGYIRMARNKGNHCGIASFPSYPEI
Outline: as §1

Row | Ki [1] | Compound | Sel cat. B (Ki(cathepsin B)/Ki(calpain) ratio) [2] | Sel cat. K (Ki(cathepsin K)/Ki(calpain) ratio) [3] | Sel cat. L (Ki(cathepsin L)/Ki(calpain) ratio) [4] | Sel cat. S (Ki(cathepsin S)/Ki(calpain) ratio) [5]
1 | ≤ 40 nM | NC(=O)C(=O)C(Cc1ccc(F)cc1)NC(=O)c1cccnc1-n1ccc(-c2ccccc2)n1 (stereo not shown) [Example 123, N-{3-Amino-1-[(4-fluorophenyl)methyl]-2,3-dioxopropyl}-2-(3-phenyl-1H-pyrazol-1-yl)pyridine-3-carboxamide] | ++ (Ki(cathepsin B)/Ki(calpain) ratio of ≧30) | ++ (Ki(cathepsin K)/Ki(calpain) ratio of ≧30) | ++ (Ki(cathepsin L)/Ki(calpain) ratio of ≧50) | ++ (Ki(cathepsin S)/Ki(calpain) ratio of ≧100)
2 | ≤ 40 nM | NC(=O)C(=O)C(Cc1ccccc1)NC(=O)c1cccnc1-n1ccc(-c2ccccc2OC(F)(F)F)n1 (stereo not shown) [Example 124, N-[3-Amino-2,3-dioxo-1-(phenylmethyl)propyl]-2-(3-{2-[(trifluoromethyl)oxy]phenyl}-1H-pyrazol-1-yl)pyridine-3-carboxamide] | ++ (Ki(cathepsin B)/Ki(calpain) ratio of ≧30) | ++ (Ki(cathepsin K)/Ki(calpain) ratio of ≧30) | ++ (Ki(cathepsin L)/Ki(calpain) ratio of ≧50) | ++ (Ki(cathepsin S)/Ki(calpain) ratio of ≧100)
3 | ≤ 40 nM | COc1cc(F)ccc1-c1ccn(-c2ncccc2C(=O)NC(Cc2ccccc2)C(=O)C(N)=O)n1 (stereo not shown) [Example 125, N-[3-Amino-2,3-dioxo-1-(phenylmethyl)propyl]-2-{3-[4-fluoro-2-(methyloxy)phenyl]-1H-pyrazol-1-yl}pyridine-3-carboxamide] | ++ (Ki(cathepsin B)/Ki(calpain) ratio of ≧30) | ++ (Ki(cathepsin K)/Ki(calpain) ratio of ≧30) | ++ (Ki(cathepsin L)/Ki(calpain) ratio of ≧50) | ++ (Ki(cathepsin S)/Ki(calpain) ratio of ≧100)
4 | ≤ 40 nM | NC(=O)C(=O)C(Cc1ccc(OCc2ccccc2)cc1)NC(=O)c1cccnc1-n1ccc(-c2ccccc2)n1 (stereo not shown) [Example 127, N-[3-Amino-2,3-dioxo-1-({4-[(phenylmethyl)oxy]phenyl}methyl)propyl]-2-(3-phenyl-1H-pyrazol-1-yl)pyridine-3-carboxamide] | ++ (Ki(cathepsin B)/Ki(calpain) ratio of ≧30) | ++ (Ki(cathepsin K)/Ki(calpain) ratio of ≧30) | ++ (Ki(cathepsin L)/Ki(calpain) ratio of ≧50) | ++ (Ki(cathepsin S)/Ki(calpain) ratio of ≧100)
5 | ≤ 40 nM | COc1ccc(F)cc1-c1ccn(-c2ncccc2C(=O)NC(Cc2ccccc2)C(=O)C(N)=O)n1 (stereo not shown) [Example 130, N-[3-Amino-2,3-dioxo-1-(phenylmethyl)propyl]-2-{3-[5-fluoro-2-(methyloxy)phenyl]-1H-pyrazol-1-yl}pyridine-3-carboxamide] | ++ (Ki(cathepsin B)/Ki(calpain) ratio of ≧30) | ++ (Ki(cathepsin K)/Ki(calpain) ratio of ≧30) | ++ (Ki(cathepsin L)/Ki(calpain) ratio of ≧50) | ++ (Ki(cathepsin S)/Ki(calpain) ratio of ≧100)
6 | ≤ 40 nM | COc1ccc(Cl)cc1-c1ccn(-c2ncccc2C(=O)NC(Cc2ccccc2)C(=O)C(N)=O)n1 (stereo not shown) [Example 131, N-[3-Amino-2,3-dioxo-1-(phenylmethyl)propyl]-2-{3-[5-chloro-2-(methyloxy)phenyl]-1H-pyrazol-1-yl}pyridine-3-carboxamide] | ++ (Ki(cathepsin B)/Ki(calpain) ratio of ≧30) | ++ (Ki(cathepsin K)/Ki(calpain) ratio of ≧30) | ++ (Ki(cathepsin L)/Ki(calpain) ratio of ≧50) | ++ (Ki(cathepsin S)/Ki(calpain) ratio of ≧100)
7 | 40 to 100 nM | NC(=O)C(=O)C(Cc1ccc(OC(F)(F)F)cc1)NC(=O)c1cccnc1-n1ccc(-c2ccc(F)cc2)n1 (stereo not shown) [Example 132, N-[3-Amino-2,3-dioxo-1-({4-[(trifluoromethyl)oxy]phenyl}methyl)propyl]-2-[3-(4-fluorophenyl)-1H-pyrazol-1-yl]pyridine-3-carboxamide] | + (10≦Ki(cathepsin B)/Ki(calpain)<30) | ++ (Ki(cathepsin K)/Ki(calpain) ratio of ≧30) | ++ (Ki(cathepsin L)/Ki(calpain) ratio of ≧50) | ++ (Ki(cathepsin S)/Ki(calpain) ratio of ≧100)
8 | 40 to 100 nM | NC(=O)C(=O)C(Cc1ccc(OC(F)(F)F)cc1)NC(=O)c1cccnc1-n1ccc(-c2ccccc2)n1 (stereo not shown) [Example 133, N-[3-Amino-2,3-dioxo-1-({4-[(trifluoromethyl)oxy]phenyl}methyl)propyl]-2-(3-phenyl-1H-pyrazol-1-yl)pyridine-3-carboxamide] | ++ (Ki(cathepsin B)/Ki(calpain) ratio of ≧30) | ++ (Ki(cathepsin K)/Ki(calpain) ratio of ≧30) | ++ (Ki(cathepsin L)/Ki(calpain) ratio of ≧50) | ++ (Ki(cathepsin S)/Ki(calpain) ratio of ≧100)
9 | ≤ 40 nM | COc1ccc(CC(NC(=O)c2cccnc2-n2ccc(-c3cccc4ccccc34)n2)C(=O)C(N)=O)cc1 (stereo not shown) [Example 135, N-(3-Amino-1-{[4-(methyloxy)phenyl]methyl}-2,3-dioxopropyl)-2-(3-naphthalen-1-yl-1H-pyrazol-1-yl)pyridine-3-carboxamide] | ++ (Ki(cathepsin B)/Ki(calpain) ratio of ≧30) | ++ (Ki(cathepsin K)/Ki(calpain) ratio of ≧30) | ++ (Ki(cathepsin L)/Ki(calpain) ratio of ≧50) | ++ (Ki(cathepsin S)/Ki(calpain) ratio of ≧100)
10 | ≤ 40 nM | COc1ccc(CC(NC(=O)c2cccnc2-n2ccc(-c3ccc(F)cc3OC)n2)C(=O)C(N)=O)cc1 (stereo not shown) [Example 136, N-(3-Amino-1-{[4-(methyloxy)phenyl]methyl}-2,3-dioxopropyl)-2-{3-[4-fluoro-2-(methyloxy)phenyl]-1H-pyrazol-1-yl}pyridine-3-carboxamide] | ++ (Ki(cathepsin B)/Ki(calpain) ratio of ≧30) | ++ (Ki(cathepsin K)/Ki(calpain) ratio of ≧30) | ++ (Ki(cathepsin L)/Ki(calpain) ratio of ≧50) | ++ (Ki(cathepsin S)/Ki(calpain) ratio of ≧100)
11 | 40 to 100 nM | COc1ccc(CC(NC(=O)c2cccnc2-n2ccc(-c3ccc4c(c3)OC(F)(F)O4)n2)C(=O)C(N)=O)cc1 (stereo not shown) [Example 137, N-(3-Amino-1-{[4-(methyloxy)phenyl]methyl}-2,3-dioxopropyl)-2-[3-(2,2-difluoro-1,3-benzodioxol-5-yl)-1H-pyrazol-1-yl]pyridine-3-carboxamide] | + (10≦Ki(cathepsin B)/Ki(calpain)<30) | + (10≦Ki(cathepsin K)/Ki(calpain)<30) | ++ (Ki(cathepsin L)/Ki(calpain) ratio of ≧50) | ++ (Ki(cathepsin S)/Ki(calpain) ratio of ≧100)
